Measured values taken from patent US20030232102A1, “Total glycosides of paeony, method to prepare the same and uses thereof” (priority 2001, published 2003).

Legend:
[1] = system: patients with rheumatoid arthritis; assay: Phase II clinical study: adverse (reverse) drug effects and drug toleration; format: in vivo, human
Procedure: (§1) It was a multiple-centered, randomized, parallel, positive controlled Phrase II clinical study.
The eneral condition of patients was evaluated on each visit and follow-up survey. Patients were inquired of symptoms and signs into a 26-item list of side effect. Once a possible side effect occurred, the relevant information as time, severity, frequency, duration, method used in release and its result were recorded by the doctor. […] A second disease occurred during the study was not counted in as a side effect. Index of overall side-effect is as below:
2=upset of medium severity, interfere with the daily life of patient
3=sever unwell, obviously affect a normal daily life and may need a bed rest.
4=life threatening side effect
Investigators should score individually on drug toleration in each patient after the test base on the following criteria:
0=bear sever side effect(s) and need to halt the test
1=side effects(s) of medium severity, relevant treatments is adopted.
2=mild side effect(s), no treatment was needed

[2] = system: patients with rheumatoid arthritis; assay: Phase II clinical study: laboratory tests and immune system perimeters; format: in vivo, human; parameters: ESR / CRP / RF / Ig A / Ig G / Laboratory blood tests: Hg / Laboratory blood tests: WBC / Laboratory blood tests: BP / Laboratory blood tests: Cr / Laboratory blood tests: BUN: unit not given here; conditions: for Laboratory blood tests: Hg / Laboratory blood tests: WBC / Laboratory blood tests: BP / Laboratory blood tests: BUN / Laboratory blood tests: Cr / Laboratory blood tests: GPT: overall group
Text: as §1
10) Routine blood and urine exam: Hemoglobin, platelet count, biochemical serum test and routine urine test
11) Blood Sedimentation (Norm. M: 15 mm/hr F: 20 mm/hr)
12) Serum Rheumatoid Factor (Method: Latex Agglutination Test, LAT): The maximum titer value were required for positive reaction patients. All centers use the same standard agents in one product batch.
13) C-reactive protein (quantitative method): All centers use the same standard agents in one product batch.

[3] = double-blind, 4 weeks, column 1
[4] = double-blind, 12 weeks, column 1
[5] = double-blind, 12 weeks, column 2
[6] = overall group, 4 weeks, column 1
[7] = overall group, 4 weeks, column 2
[8] = overall group, 4 weeks, column 3
[9] = overall group, 8 weeks, column 1
[10] = overall group, 8 weeks, column 2
[11] = overall group, 8 weeks, column 3
[12] = overall group, 12 weeks, column 1
[13] = overall group, 12 weeks, column 2
[14] = overall group, 24 weeks, column 1
[15] = overall group, 24 weeks, column 2
[16] = 4 weeks (row order of Table 65)
[17] = 8 weeks (row order of Table 65)
[18] = 12 weeks (row order of Table 65)
[19] = 24 weeks (row order of Table 65)
[20] = 4 weeks (row order of Table 67)
[21] = 8 weeks (row order of Table 67)
[22] = 12 weeks (row order of Table 67)
[23] = 24 weeks (row order of Table 67)
[24] = period of treatment 0 (row order of Table 67)
[25] = period of treatment 0 (row order of Table 65)

- Laboratory blood tests: Hg ([2]; 4 weeks): 10.96 ± 3.65
- Laboratory blood tests: WBC ([2]; 4 weeks): 7.47 ± 2.09
- Laboratory blood tests: BP [2, 20]: 94.28 ± 31.42
- Laboratory blood tests: BUN [2, 20]: 3.32 ± 1.11
- Laboratory blood tests: Cr [2, 20]: 82.82 ± 27.64
- Laboratory blood tests: GPT [2, 20]: Norm.
- Laboratory blood tests: Hg ([2]; 8 weeks): 9.26 ± 3.09
- Laboratory blood tests: WBC ([2]; 8 weeks): 8.47 ± 2.82
- Laboratory blood tests: BP [2, 21]: 108.73 ± 36.21
- Laboratory blood tests: BUN [2, 21]: 1.97 ± 0.65
- Laboratory blood tests: Cr [2, 21]: 98.89 ± 32.93
- Laboratory blood tests: GPT [2, 21]: Norm.
- Laboratory blood tests: Hg ([2]; 12 weeks): 9.24 ± 2.98
- Laboratory blood tests: WBC ([2]; 12 weeks): 8.42 ± 2.57
- Laboratory blood tests: BP [2, 22]: 110.66 ± 37.48
- Laboratory blood tests: BUN [2, 22]: 1.82 ± 0.47
- Laboratory blood tests: Cr [2, 22]: 102.03 ± 36.86
- Laboratory blood tests: GPT [2, 22]: Norm.
- Laboratory blood tests: Hg ([2]; 24 weeks): 10.78 ± 3.10
- Laboratory blood tests: WBC ([2]; 24 weeks): 7.28 ± 2.67
- Laboratory blood tests: BP [2, 23]: 168.48 ± 30.78
- Laboratory blood tests: BUN [2, 23]: 3.38 ± 1.01
- Laboratory blood tests: Cr [2, 23]: 78.66 ± 26.42
- Laboratory blood tests: GPT [2, 23]: Norm.
- Laboratory blood tests: Hg ([2]; period of treatment 0): 11.28 ± 3.72
- Laboratory blood tests: WBC ([2]; period of treatment 0): 7.96 ± 2.61
- Laboratory blood tests: BP [2, 24]: 98.97 ± 32.86
- Laboratory blood tests: BUN [2, 24]: 3.96 ± 1.32
- Laboratory blood tests: Cr [2, 24]: 74.86 ± 28.28
- Laboratory blood tests: GPT [2, 24]: Norm.
SMILES: CN(Cc1cnc2nc(N)nc(N)c2n1)c1ccc(C(=O)N[C@@H](CCC(=O)O)C(=O)O)cc1 [MTX, Methotrexate]
- Events of reverse drug effects: Dizziness [1, 3]: 3
- Events of reverse drug effects: Headache [1, 3]: 1
- Events of reverse drug effects: Bad appetite [1, 4]: 2
- Events of reverse drug effects: Dizziness [1, 4]: 1
- Events of reverse drug effects: Frequency of micturition [1, 4]: 1
- Events of reverse drug effects: Headache [1, 4]: 1
- Events of reverse drug effects: Lethargy [1, 4]: 1
- Events of reverse drug effects: Nausea [1, 4]: 4
- Events of reverse drug effects: Bad appetite [1, 5]: 2
- Events of reverse drug effects: Insomnia [1, 5]: 1
- Events of reverse drug effects: Nausea [1, 5]: 4
- Events of reverse drug effects: Abd distension [1, 6]: 7
- Events of reverse drug effects: Bad appetite [1, 6]: 27
- Events of reverse drug effects: Burning heart [1, 6]: 1
- Events of reverse drug effects: Constipation [1, 6]: 3
- Events of reverse drug effects: Diarrhea [1, 6]: 1
- Events of reverse drug effects: Dizziness [1, 6]: 6
- Events of reverse drug effects: Headache [1, 6]: 1
- Events of reverse drug effects: Lethargy [1, 6]: 1
- Events of reverse drug effects: Nausea [1, 6]: 14
- Events of reverse drug effects: Palpitation [1, 6]: 3
- Events of reverse drug effects: Stomachache [1, 6]: 1
- Events of reverse drug effects: Stomatitis [1, 6]: 2
- Events of reverse drug effects: Vomiting [1, 6]: 3
- Events of reverse drug effects: Abd distension [1, 7]: 5
- Events of reverse drug effects: Bad appetite [1, 7]: 3
- Events of reverse drug effects: Diarrhea [1, 7]: 1
- Events of reverse drug effects: Headache [1, 7]: 1
- Events of reverse drug effects: Nausea [1, 7]: 8
- Events of reverse drug effects: Stomachache [1, 7]: 1
- Events of reverse drug effects: Burning heart [1, 8]: 2
- Events of reverse drug effects: Stomachache [1, 8]: 1
- Events of reverse drug effects: Abd distension [1, 9]: 11
- Events of reverse drug effects: Bad appetite [1, 9]: 28
- Events of reverse drug effects: Burning heart [1, 9]: 3
- Events of reverse drug effects: Constipation [1, 9]: 3
- Events of reverse drug effects: Diarrhea [1, 9]: 1
- Events of reverse drug effects: Dizziness [1, 9]: 4
- Events of reverse drug effects: Headache [1, 9]: 2
- Events of reverse drug effects: Insomnia [1, 9]: 5
- Events of reverse drug effects: Lethargy [1, 9]: 2
- Events of reverse drug effects: Nausea [1, 9]: 16
- Events of reverse drug effects: Palpitation [1, 9]: 3
- Events of reverse drug effects: Stomatitis [1, 9]: 9
- Events of reverse drug effects: Vomiting [1, 9]: 2
- Events of reverse drug effects: Abd distension [1, 10]: 4
- Events of reverse drug effects: Bad appetite [1, 10]: 5
- Events of reverse drug effects: Burning heart [1, 10]: 1
- Events of reverse drug effects: Headache [1, 10]: 1
- Events of reverse drug effects: Nausea [1, 10]: 7
- Events of reverse drug effects: Skin rash [1, 10]: 1
- Events of reverse drug effects: Stomatitis [1, 10]: 1
- Events of reverse drug effects: Vomiting [1, 10]: 1
- Events of reverse drug effects: Abd distension [1, 11]: 1
- Events of reverse drug effects: Bad appetite [1, 11]: 1
- Events of reverse drug effects: Burning heart [1, 11]: 1
- Events of reverse drug effects: Constipation [1, 11]: 1
- Events of reverse drug effects: Abd distension [1, 12]: 15
- Events of reverse drug effects: Bad appetite [1, 12]: 35
- Events of reverse drug effects: Burning heart [1, 12]: 2
- Events of reverse drug effects: Constipation [1, 12]: 2
- Events of reverse drug effects: Diarrhea [1, 12]: 1
- Events of reverse drug effects: Dizziness [1, 12]: 4
- Events of reverse drug effects: Headache [1, 12]: 2
- Events of reverse drug effects: Insomnia [1, 12]: 5
- Events of reverse drug effects: Lethargy [1, 12]: 1
- Events of reverse drug effects: Nausea [1, 12]: 25
- Events of reverse drug effects: Palpitation [1, 12]: 2
- Events of reverse drug effects: Skin rash [1, 12]: 1
- Events of reverse drug effects: Stomatitis [1, 12]: 9
- Events of reverse drug effects: Vomiting [1, 12]: 3
- Events of reverse drug effects: Abd distension [1, 13]: 4
- Events of reverse drug effects: Bad appetite [1, 13]: 3
- Events of reverse drug effects: Headache [1, 13]: 1
- Events of reverse drug effects: Insomnia [1, 13]: 1
- Events of reverse drug effects: Nausea [1, 13]: 10
- Events of reverse drug effects: Stomatitis [1, 13]: 1
- Events of reverse drug effects: Burning heart ([1]; overall group, 12 weeks, column 3): 1
- Events of reverse drug effects: Bad appetite [1, 14]: 3
- Events of reverse drug effects: Dizziness [1, 14]: 1
- Events of reverse drug effects: Headache [1, 14]: 2
- Events of reverse drug effects: Insomnia [1, 14]: 1
- Events of reverse drug effects: Nausea [1, 14]: 7
- Events of reverse drug effects: Vomiting [1, 14]: 2
- Events of reverse drug effects: Insomnia [1, 15]: 1
- Events of reverse drug effects: Nausea [1, 15]: 2
- Events of reverse drug effects: Vomiting [1, 15]: 1
- CRP ([2]; 4 weeks): 27.97 ± 21.12
- ESR ([2]; 4 weeks): 42.11 ± 38.68
- Ig A [2, 16]: 3.64 ± 3.54
- Ig G [2, 16]: 17.40 ± 6.59
- RF [2, 16]: 1.87 ± 0.62
- CRP ([2]; 8 weeks): 25.72 ± 19.42
- ESR ([2]; 8 weeks): 44.92 ± 78.36
- Ig A [2, 17]: 3.98 ± 3.56
- Ig G [2, 17]: 17.62 ± 6.37
- Ig M [2, 17]: 2.76 ± 2.24
- RF [2, 17]: 1.59 ± 0.61
- CRP ([2]; 12 weeks): 22.31 ± 18.91
- ESR ([2]; 12 weeks): 29.96 ± 20.48
- Ig A [2, 18]: 3.39 ± 3.15
- Ig G [2, 18]: 16.47 ± 5.92
- RF [2, 18]: 1.72 ± 0.56
- CRP ([2]; 24 weeks): 27.12 ± 22.39
- ESR ([2]; 24 weeks): 28.66 ± 20.96
- Ig A [2, 19]: 2.35 ± 1.55
- Ig G [2, 19]: 15.26 ± 6.37
- Ig M [2, 19]: 1.57 ± 0.79
- RF [2, 19]: 1.74 ± 0.63
- CRP ([2]; period of treatment 0): 32.01 ± 22.75
- ESR ([2]; period of treatment 0): 47.11 ± 26.19
- Ig A [2, 25]: 3.62 ± 3.42
- Ig G [2, 25]: 18.13 ± 7.12
- RF [2, 25]: 1.93 ± 0.61
